Source: the supplement of paper PMC10307832

How the values were obtained:
Test in all cases: relative viability (nuclei count vs DMSO), 5 days (fraction); higher = more cells survive
Wnt-C59 + Decitabine = compound: CC1=NC=CC(=C1)C2=CC=C(C=C2)CC(=O)NC3=CC=C(C=C3)C4=CN=CC=C4 [Wnt-C59] + Nc1ncn([C@H]2C[C@H](O)[C@@H](CO)O2)c(=O)n1 [Decitabine] (partner 2 µM)
How it was run: (§1)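 A single step with final 0.05% Triton X-100, 1% formaldehyde and 1 ug/ml Hoechst fixed the cells and stained nuclei 5 days after treatment. Lung cancer cell lines in 1536-well plates had been treated by pin tool the day after seeding with one drug alone or a fixed anchor-drug dose plus five library-drug doses (not always all listed) in √10 steps, and nuclei were counted on 4× images. Relative viability is the ratio of nuclei in treated wells to nuclei in vehicle wells, taken as the median of duplicate plates.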

Wnt-C59 + Alpelisib = compound: CC1=NC=CC(=C1)C2=CC=C(C=C2)CC(=O)NC3=CC=C(C=C3)C4=CN=CC=C4 [Wnt-C59] + Cc1nc(NC(=O)N2CCC[C@H]2C(N)=O)sc1-c1ccnc(C(C)(C)C(F)(F)F)c1 [Alpelisib] (partner 2 µM)
How it was run: as §1

Wnt-C59 + Trametinib = compound: CC1=NC=CC(=C1)C2=CC=C(C=C2)CC(=O)NC3=CC=C(C=C3)C4=CN=CC=C4 [Wnt-C59] + CC(=O)Nc1cccc(-n2c(=O)n(C3CC3)c(=O)c3c(Nc4ccc(I)cc4F)n(C)c(=O)c(C)c32)c1 [Trametinib] (partner 0.02 µM)
How it was run: as §1

Wnt-C59 + Pemetrexed = compound: CC1=NC=CC(=C1)C2=CC=C(C=C2)CC(=O)NC3=CC=C(C=C3)C4=CN=CC=C4 [Wnt-C59] + Nc1nc2[nH]cc(CCc3ccc(C(=O)N[C@@H](CCC(=O)O)C(=O)O)cc3)c2c(=O)[nH]1 [Pemetrexed] (partner 0.2 µM)
How it was run: as §1

Cell Line | relative viability (Wnt-C59 + Decitabine; first compound 0.001 µM) | relative viability (Wnt-C59 + Decitabine; first compound 0.01 µM) | relative viability (Wnt-C59 + Decitabine; first compound 0.03162 µM) | relative viability (Wnt-C59 + Decitabine; first compound 0.1 µM) | relative viability (Wnt-C59 + Alpelisib; first compound 0.001 µM) | relative viability (Wnt-C59 + Alpelisib; first compound 0.01 µM) | relative viability (Wnt-C59 + Alpelisib; first compound 0.03162 µM) | relative viability (Wnt-C59 + Alpelisib; first compound 0.1 µM) | relative viability (Wnt-C59 + Trametinib; first compound 0.001 µM) | relative viability (Wnt-C59 + Trametinib; first compound 0.01 µM) | relative viability (Wnt-C59 + Trametinib; first compound 0.03162 µM) | relative viability (Wnt-C59 + Trametinib; first compound 0.1 µM) | relative viability (Wnt-C59 + Pemetrexed; first compound 0.001 µM) | relative viability (Wnt-C59 + Pemetrexed; first compound 0.01 µM) | relative viability (Wnt-C59 + Pemetrexed; first compound 0.03162 µM) | relative viability (Wnt-C59 + Pemetrexed; first compound 0.1 µM)
201T | 0.861 | 0.824 | 0.902 | 0.812 | 1.06 | 1.01 | 0.99 | 1 | 0.698 | 0.747 | 0.733 | 0.698 | 0.357 | 0.326 | 0.311 | 0.36
A549 | 0.222 | 0.247 | 0.247 | 0.225 | 0.978 | 0.75 | 0.712 | 0.682 |  |  |  |  |  |  |  | 
A-427 | 0.623 | 0.564 | 0.615 | 0.588 | 1.07 | 1 | 1.14 | 1.08 | 0.749 | 0.746 | 0.81 | 0.876 | 0.936 | 1.04 | 0.994 | 1.1
ABC-1 | 1.08 | 1.14 | 1.05 | 0.938 | 1.26 | 1.01 | 0.718 | 0.876 |  |  |  |  |  |  |  | 
BEN | 0.667 | 0.741 | 0.807 | 0.782 | 1.11 | 0.993 | 1.37 | 0.957 | 1.13 | 0.995 | 1 | 1.04 | 0.707 | 0.738 | 0.754 | 0.846
CAL-12T |  |  |  |  | 1.25 | 1.32 | 1.31 | 1.1 | 0.327 | 0.378 | 0.367 | 0.381 | 1.33 | 1.18 | 1.29 | 1.09
COR-L23 | 0.489 | 0.47 | 0.493 | 0.525 | 0.776 | 0.752 | 0.775 | 0.725 | 0.626 | 0.648 | 0.684 | 0.56 | 0.221 | 0.194 | 0.206 | 0.2
COR-L 105 | 0.613 | 0.618 | 0.663 | 0.586 | 1.19 | 1.03 | 0.93 | 0.78 | 0.444 | 0.433 | 0.448 | 0.488 | 1.13 | 0.887 | 1.14 | 1.15
Calu-6 |  |  |  |  | 0.898 | 0.945 | 1.15 | 0.938 |  |  |  |  |  |  |  | 
ChaGo-K-1 | 0.56 | 0.484 | 0.534 | 0.534 |  |  |  |  | 0.845 | 0.875 | 0.96 | 0.841 | 0.258 | 0.259 | 0.252 | 0.266
EBC-1 |  |  |  |  | 0.91 | 0.852 | 0.755 | 0.79 |  |  |  |  |  |  |  | 
EKVX | 0.313 |  | 0.417 | 0.374 | 0.931 | 0.783 | 0.73 | 0.668 | 0.366 |  | 0.324 | 0.319 | 0.376 |  | 0.367 | 0.361
EMC-BAC-2 | 0.932 | 0.914 | 0.89 | 0.89 | 0.684 | 0.607 | 0.672 | 0.65 | 0.797 | 0.697 | 0.793 | 0.713 | 0.474 | 0.447 | 0.426 | 0.439
EPLC-272H | 0.443 | 0.369 | 0.472 | 0.364 | 0.96 | 0.861 | 0.976 | 0.921 | 0.275 | 0.277 | 0.316 | 0.298 | 0.38 | 0.354 | 0.318 | 0.315
H3255 | 0.62 | 0.601 | 0.668 | 0.515 | 0.798 | 0.556 | 0.68 | 0.596 | 0.664 | 0.495 | 0.683 | 0.506 | 0.598 | 0.553 | 0.583 | 0.554
HARA | 0.604 | 0.455 | 0.543 | 0.587 | 0.773 | 0.645 | 0.959 | 0.787 | 0.785 | 0.691 | 0.933 | 0.879 | 0.206 | 0.206 | 0.26 | 0.237
HCC-15 | 0.621 | 0.607 | 0.661 | 0.606 | 0.962 | 0.952 | 0.904 | 0.868 | 0.417 | 0.371 | 0.404 | 0.359 | 0.228 | 0.235 | 0.215 | 0.225
HCC-44 | 1.01 | 0.963 | 0.95 | 0.939 | 0.792 | 0.817 | 0.865 | 0.892 | 1.11 | 0.969 | 0.996 | 1.09 | 0.619 | 0.647 | 0.64 | 0.629
HCC-78 | 0.695 | 0.754 | 0.734 | 0.641 | 0.298 | 0.336 | 0.333 | 0.363 | 0.691 | 0.746 | 0.908 | 0.854 | 0.913 | 0.883 | 0.907 | 0.934
HCC-366 | 0.317 | 0.427 | 0.342 | 0.387 | 0.453 | 0.287 | 0.412 | 0.297 | 0.398 | 0.4 | 0.385 | 0.341 | 0.164 | 0.16 | 0.163 | 0.155
HCC-827 | 0.399 | 0.331 | 0.385 | 0.334 | 0.993 | 0.979 | 0.971 | 0.966 | 0.545 | 0.477 | 0.48 | 0.547 | 0.282 | 0.262 | 0.282 | 0.255
HOP-62 | 0.19 | 0.238 | 0.227 | 0.231 | 1.13 | 0.919 | 1.1 | 0.644 | 0.347 | 0.366 | 0.352 | 0.347 | 0.34 | 0.294 | 0.353 | 0.29
IA-LM |  |  |  |  | 0.84 | 0.862 | 0.759 | 0.804 |  |  |  |  |  |  |  | 
LC-2-ad | 0.756 | 0.714 | 0.927 | 0.772 | 0.824 | 0.846 | 0.953 | 0.778 | 0.904 | 0.874 | 0.905 | 0.9 | 0.282 | 0.297 | 0.271 | 0.283
